Assay results taken from patent US8735431B2, “Active compound combinations having insecticidal properties” (priority 2003, dated 2014).

Test system: Spodoptera exigua
Assay: Spodoptera exigua test (cabbage leaves dipped)
Type: in vivo
Conditions: 0.8 ppm
Method: (§1) To produce a suitable preparation of active compound, 1 part by weight of active compound is mixed with the stated amounts of solvent and emulsifier, and the concentrate is diluted with emulsifier-containing water to the desired concentration.
Cabbage leaves (Brassica oleracea) are treated by being dipped into the preparation of active compound of the desired concentration and are populated with caterpillars of the beet army worm (Spodoptera exigua) while the leaves are still moist.
(§2) After the desired period of time, the kill in % is determined. 100% means that all caterpillars have been killed; 0% means that none of the caterpillars have been killed. The determined kill ratios are entered into Colby's formula (see page 39).

Compound | Kill rate in % after 6d found [%]
O=C(NC(=O)c1c(F)cccc1F)Nc1ccc(Oc2ccc(C(F)(F)F)cc2Cl)cc1F [(2-22) flufenoxuron, flufenoxuron, reference compound] | 10

Test system: Plutella xylostella, resistant strain
Assay: Plutella xylostella test (resistant strain)
Type: in vivo
Conditions: 0.00128 ppm, 6 d
Method: as §1
Cabbage leaves (Brassica oleracea) are treated by being dipped into the preparation of active compound of the desired concentration and are populated with caterpillars of the diamondback moth (Plutella xylostella, resistant strain) while the leaves are still moist.
as §2

Compound | Kill rate in % after 6d found [%]
emamectin [(2-9) emamectin, reference compound] | 40

Test system: Heliothis armigera
Assay: Heliothis armigera test (soybean shoots dipped)
Type: in vivo
Conditions: 0.00128 ppm, 6 d
Method: as §1
Soybean shoots (Glycine max) are treated by being dipped into the preparation of active compound of the desired concentration and are populated with caterpillars of the cotton bollworm (Heliothis armigera) while the leaves are still moist.
as §2

Compound | Kill rate in % after 6d found [%]
emamectin [(2-9) emamectin, reference compound] | 0

Same assay, conditions: 0.8 ppm, 6 d

Compound | Kill rate in % after 6d found [%]
O=C(NC(=O)c1ccccc1Cl)Nc1ccc(OC(F)(F)F)cc1 [(2-5) triflumuron, triflumuron, reference compound] | 0

Same assay, conditions: 4 ppm, 3 d

Compound | Kill rate in % after 3d found [%]
COc1cccc(C(=O)NN(C(=O)c2cc(C)cc(C)c2)C(C)(C)C)c1C [(2-10) methoxyfenozide, methoxyfenozide, reference compound] | 0

Test system: not given
Assay: not given
Conditions: not given

Compound | melting point [°C]
CCNC(=O)c1cc(Br)cc(C)c1NC(=O)c1cc(Br)nn1-c1ncccc1Cl | 194 to 196
CC(C)NC(=O)c1cc(Br)cc(Br)c1NC(=O)c1cc(Br)nn1-c1ncccc1Cl | 162 to 163
CN(C)C(=O)c1cc(Cl)cc(Cl)c1NC(=O)c1cc(Cl)nn1-c1ncccc1Cl | 231 to 232
CCNC(=O)c1cc(Cl)cc(Cl)c1NC(=O)c1cc(C(F)(F)F)nn1-c1ncccc1Cl | 201 to 202
CCNC(=O)c1cc(Br)cc(C)c1NC(=O)c1cc(Cl)nn1-c1ncccc1Cl | 192 to 194
CC(C)(C)NC(=O)c1cc(Br)cc(Br)c1NC(=O)c1cc(C(F)(F)F)nn1-c1ncccc1Cl | 246 to 247
CCNC(=O)c1cc(Cl)cc(Cl)c1NC(=O)c1cc(Br)nn1-c1ncccc1Cl | 214 to 215
CNC(=O)c1cc(Br)cc(Br)c1NC(=O)c1cc(Br)nn1-c1ncccc1Cl | 166 to 168
Cc1cc(I)cc(C(=O)NC(C)(C)C)c1NC(=O)c1cc(Cl)nn1-c1ncccc1Cl | 228 to 229
CCNC(=O)c1cc(Br)cc(Br)c1NC(=O)c1cc(Cl)nn1-c1ncccc1Cl | 192 to 194
CN(C)C(=O)c1cc(Br)cc(Br)c1NC(=O)c1cc(Cl)nn1-c1ncccc1Cl | 153 to 155
CC(C)(C)NC(=O)c1cc(Br)cc(Br)c1NC(=O)c1cc(Cl)nn1-c1ncccc1Cl | 210 to 212
CNC(=O)c1cc(Cl)cc(Cl)c1NC(=O)c1cc(C(F)(F)F)nn1-c1ncccc1Cl | 155 to 157
CN(C)C(=O)c1cc(Cl)cc(Cl)c1NC(=O)c1cc(C(F)(F)F)nn1-c1ncccc1Cl | 225 to 227
CC(C)(C)NC(=O)c1cc(Br)cc(Cl)c1NC(=O)c1cc(C(F)(F)F)nn1-c1ncccc1Cl | 143 to 145
CC(C)(C)NC(=O)c1cc(Cl)cc(Cl)c1NC(=O)c1cc(Br)nn1-c1ncccc1Cl | 179 to 180
CNC(=O)c1cc(I)cc(C)c1NC(=O)c1cc(Br)nn1-c1ncccc1Cl | 229 to 230
Cc1cc(Br)cc(C(=O)N(C)C)c1NC(=O)c1cc(C(F)(F)F)nn1-c1ncccc1Cl | 207 to 208
CNC(=O)c1cc(Br)cc(Br)c1NC(=O)c1cc(C(F)(F)F)nn1-c1ncccc1Cl | 162 to 163
CNC(=O)c1cc(Br)cc(C)c1NC(=O)c1cc(C(F)(F)F)nn1-c1ncccc1Cl | 222 to 223
CC(C)(C)NC(=O)c1cc(Cl)cc(Cl)c1NC(=O)c1cc(Cl)nn1-c1ncccc1Cl | 172 to 173
CCNC(=O)c1cc(Br)cc(Br)c1NC(=O)c1cc(Br)nn1-c1ncccc1Cl | 196 to 197

Compound | melting point [°C]
CNC(=O)c1cc(Br)cc(C)c1NC(=O)c1cc(Cl)nn1-c1ncccc1Cl | 140 to 141
CCNC(=O)c1cc(I)cc(C)c1NC(=O)c1cc(C(F)(F)F)nn1-c1ncccc1Cl | 199 to 200
Cc1cc(Br)cc(C(=O)NC(C)(C)C)c1NC(=O)c1cc(Br)nn1-c1ncccc1Cl | 215 to 221
CC(C)(C)NC(=O)c1cc(Br)cc(Br)c1NC(=O)c1cc(Br)nn1-c1ncccc1Cl | 194 to 196
CCNC(=O)c1cc(Br)cc(Br)c1NC(=O)c1cc(C(F)(F)F)nn1-c1ncccc1Cl | 188 to 189
CNC(=O)c1cc(Cl)cc(Cl)c1NC(=O)c1cc(Cl)nn1-c1ncccc1Cl | 205 to 206
CNC(=O)c1cc(Br)cc(Br)c1NC(=O)c1cc(Cl)nn1-c1ncccc1Cl | 188 to 190
Cc1cc(Br)cc(C(=O)NC(C)(C)C)c1NC(=O)c1cc(Cl)nn1-c1ncccc1Cl | 224 to 225
CCNC(=O)c1cc(Br)cc(C)c1NC(=O)c1cc(C(F)(F)F)nn1-c1ncccc1Cl | 192 to 193
CC(C)NC(=O)c1cc(Br)cc(Br)c1NC(=O)c1cc(Cl)nn1-c1ncccc1Cl | 197 to 199
CN(C)C(=O)c1cc(Br)cc(Br)c1NC(=O)c1cc(C(F)(F)F)nn1-c1ncccc1Cl | 228 to 229
CNC(=O)c1cc(Br)cc(C)c1NC(=O)c1cc(Br)nn1-c1ncccc1Cl | 147 to 149
CN(C)C(=O)c1cc(Br)cc(Br)c1NC(=O)c1cc(Br)nn1-c1ncccc1Cl | 189 to 190
CCNC(=O)c1cc(I)cc(C)c1NC(=O)c1cc(Cl)nn1-c1ncccc1Cl | 196 to 197
CN(C)C(=O)c1cc(Cl)cc(Cl)c1NC(=O)c1cc(Br)nn1-c1ncccc1Cl | 216 to 218
Cc1cc(Br)cc(C(=O)NC(C)(C)C)c1NC(=O)c1cc(C(F)(F)F)nn1-c1ncccc1Cl | 247 to 248
CNC(=O)c1cc(Cl)cc(Cl)c1NC(=O)c1cc(Br)nn1-c1ncccc1Cl | 245 to 246
CNC(=O)c1cc(I)cc(C)c1NC(=O)c1cc(Cl)nn1-c1ncccc1Cl | 233 to 234
Cc1cc(I)cc(C(=O)NC(C)(C)C)c1NC(=O)c1cc(C(F)(F)F)nn1-c1ncccc1Cl | 242 to 243
CC(C)(C)NC(=O)c1cc(Cl)cc(Cl)c1NC(=O)c1cc(C(F)(F)F)nn1-c1ncccc1Cl | 170 to 172
CCNC(=O)c1cc(Cl)cc(Cl)c1NC(=O)c1cc(Cl)nn1-c1ncccc1Cl | 206 to 208

Now from value to compound:

melting point [°C] | Compound
225 to 226 | CNC(=O)c1cc(Cl)cc(C)c1NC(=O)c1cc(Cl)nn1-c1ncccc1Cl
188 to 189 | Cc1cc(I)cc(C(=O)NC(C)C)c1NC(=O)c1cc(C(F)(F)F)nn1-c1ncccc1Cl
232 to 235 | CC(C)NC(=O)c1cc(Cl)cc(Cl)c1NC(=O)c1cc(OCC(F)(F)F)nn1-c1ncccc1Cl
197 to 198 | Cc1cc(Br)cc(C(=O)NC(C)C)c1NC(=O)c1cc(C(F)(F)F)nn1-c1ncccc1Cl
200 to 201 | CC(C)NC(=O)c1cc(Cl)cc(Cl)c1NC(=O)c1cc(C(F)(F)F)nn1-c1ncccc1Cl
207 to 208 | CNC(=O)c1cc(Cl)cc(C)c1NC(=O)c1cc(OCC(F)(F)F)nn1-c1ncccc1Cl
189 to 190 | Cc1cc(I)cc(C(=O)NC(C)C)c1NC(=O)c1cc(Cl)nn1-c1ncccc1Cl
205 to 207 | CCNC(=O)c1cc(Cl)cc(C)c1NC(=O)c1cc(OCC(F)(F)F)nn1-c1ncccc1Cl
192 to 193 | CC(C)NC(=O)c1cc(Br)cc(Br)c1NC(=O)c1cc(C(F)(F)F)nn1-c1ncccc1Cl
199 to 200 | CCNC(=O)c1cc(Cl)cc(C)c1NC(=O)c1cc(Cl)nn1-c1ncccc1Cl
192 to 195 | CNC(=O)c1cc(Cl)cc(Cl)c1NC(=O)c1cc(OCC(F)(F)F)nn1-c1ncccc1Cl
185 to 187 | Cc1cc(Br)cc(C(=O)NC(C)C)c1NC(=O)c1cc(Br)nn1-c1ncccc1Cl
152 to 153 | Cc1cc(Br)cc(C(=O)NC(C)C)c1NC(=O)c1cc(Cl)nn1-c1ncccc1Cl
197 to 199 | CC(C)NC(=O)c1cc(Cl)cc(Cl)c1NC(=O)c1cc(Cl)nn1-c1ncccc1Cl
188 to 190 | CC(C)NC(=O)c1cc(Cl)cc(Cl)c1NC(=O)c1cc(Br)nn1-c1ncccc1Cl
191 to 192 | Cc1cc(I)cc(C(=O)NC(C)C)c1NC(=O)c1cc(Br)nn1-c1ncccc1Cl
163 to 164 | CCNC(=O)c1cc(Cl)cc(C)c1NC(=O)c1cc(C(F)(F)F)nn1-c1ncccc1Cl
199 to 200 | CNC(=O)c1cc(I)cc(C)c1NC(=O)c1cc(C(F)(F)F)nn1-c1ncccc1Cl
223 to 225 | Cc1cc(Cl)cc(C(=O)NC(C)(C)C)c1NC(=O)c1cc(C(F)(F)F)nn1-c1ncccc1Cl
159 to 161 | Cc1cc(Cl)cc(C(=O)NC(C)(C)C)c1NC(=O)c1cc(Br)nn1-c1ncccc1Cl
217 to 218 | Cc1cc(Cl)cc(C(=O)NC(C)C)c1NC(=O)c1cc(OCC(F)(F)F)nn1-c1ncccc1Cl
163 to 165 | Cc1cc(Cl)cc(C(=O)NC(C)(C)C)c1NC(=O)c1cc(Cl)nn1-c1ncccc1Cl
194 to 195 | CCNC(=O)c1cc(Cl)cc(C)c1NC(=O)c1cc(Br)nn1-c1ncccc1Cl

Test system: Plutella xylostella, normally sensitive strain
Assay: Plutella xylostella test (normally sensitive strain)
Type: in vivo
Conditions: 20 ppm, 4 d
Method: as §1
Cabbage leaves (Brassica oleracea) are treated by being dipped into the preparation of active compound of the desired concentration and are populated with caterpillars of the diamondback moth (Plutella xylostella, normally sensitive strain) while the leaves are still moist.
as §2

Compound | Kill rate in % after 4d found [%]
O=C(NC(=O)c1ccccc1Cl)Nc1ccc(OC(F)(F)F)cc1 [(2-5) triflumuron, triflumuron, reference compound] | 60
